From US20130059096A1, “METHODS AND COATINGS FOR TREATING BIOFILMS” (President and Fellows of Harvard College, priority 2010, published 2013)

Experiments:
Pseudomonas aeruginosa = experiment: Attached single cells in well plate, Syto-9 staining; assay type: cell-based
Experimental: An alternative method to observe biofilm formation on a 6 well plate with or without D-amino acids and using Syto-9 staining was as follows: Pseudomonas aeruginosa biofilms were washed twice with PBS and then fixed for at least an hour in 5% Glutaraldehyde in PBS. The fixed biofilms were then rinsed once again with PBS and soaked in 0.1% v/v Triton X-100 in PBS (PBST) for 15 minutes. The solution was exchanged with 0.1 nM […] (Invitrogen) in cold PBST and gently rocked in the dark for at least 15 minutes. Fluorescence images of the biofilms were captured with a Leica DMRX compound microscope using a Xe lamp and a K3 Leica filtercube. […] The amount of attached single cells was quantified using image J. The decrease in the amount of cells attached to the epoxy surfaces soaked with D-aa compared with the L-aa control was substantially more.

TasA-mCherry = assay type: cell-based, Bacillus subtilis; conditions: 6 μM
Experimental: Fluorescence microscopy. For fluorescence microscopy analysis, 1 ml of culture was harvested. The cells were washed with PBS buffer and suspended in 50 μl of PBS buffer. Cover slides were pretreated with poly L-lysine (Sigma). Samples were examined using an Olympus workstation BX61 microscope. Images were taken using the automated software program SimplePCI and analyzed with program MetaMorph (Universal Imaging Corporation).
The cells were grown to stationary phase with shaking in biofilm-inducing medium in the presence or absence of D-tyrosine (6 μM). […] In contrast, when the cells were washed by centrifugation, resuspended and then examined by fluorescence microscopy, untreated cells (which were often in clumps) were seen to be intensely decorated with TasA-mCherry. […] The localization of unmodified TasA protein was also analyzed by transmission electron microscopy using gold-labeled anti-TasA antibodies. […] 24-hour-old cultures were incubated without (images 1 and 2) or with (images 3-6) D-tyrosine (0.1 mM) for an additional 12 hours. TasA fibers were stained by immunogold labeling using anti-TasA antibodies, and visualized by transmission electron microscopy as described in the Examples. […] Filled arrows indicate fiber bundles; open arrows indicate individual fibers. The scale bar is 500 nm. The scale bar in the enlargements of images 2, 4 and 6 is 100 nm. […]

[1] = test system: matrix operons eps and yqxM; experiment: Expression of PyqxM-lacZ and PepsA-lacZ (β-galactosidase activity); assay type: cell-based, Bacillus subtilis; conditions: 3 μM, strains FC122 and FC5, MSgg, shaking
Experimental: Assays of β-galactosidase activity. Cells were cultured in MSgg medium at 37° C. in a water bath with shaking 1 ml of culture was collected at each time point. β-galactosidase activity was determined as described previously (Chai et al., Mol. Microbiol. 67:254 (2008)).

[2] = test system: Pseudomonas aeruginosa PA14; experiment: Biofilm formation on polystyrene, crystal violet staining; assay type: cell-based
Experimental: Crystal violet staining Crystal violet staining was done as described previously (O'Toole et al., Mol. Microbiol. 30:295 (1998)) except that the cells were grown in 6-well plates. Wells were stained with 500 μl of 1.0% Crystal-violet dye, rinsed twice with 2 ml double-distilled water and thoroughly dried.
P. aeruginosa strain […] was grown in 12-well polystyrene plates for 48 hours at 30° C. in M63 medium containing glycerol (0.2%) and Casamino acids (20 μg/ml). Additionally added to the wells were no amino acids (untreated), D-tyrosine or the D-amino acid equimolar mixture. Cells bound to the polystyrene were visualized by washing away unbound cells and then staining with crystal violet. Wells were stained with 500 μl of 1.0% Crystal-violet dye, rinsed twice with 2 ml double-distilled water and thoroughly dried.
(§1) For experiments reported in Table 1, the organism/strain was S.a. Harvard SCO1, the culture medium was TSB and the cell inoculation was at 2×10^9 cfu. For experiments reported in Table 2, the organism/strain was […], the culture medium was M63 and the cell inoculation was at 1.5×10^9 cfu. Biofilm was visualized using the crystal violet method.

Bacillus subtilis [3] = experiment: Cell growth in MSgg medium with shaking; assay type: cell-based; conditions: 3 μM
P.a. Harvard PA14 = experiment: Biofilm (colony architecture) formation on defined M63 medium; assay type: cell-based, Pseudomonas aeruginosa; conditions: 500 μM
Text: Similarly to Bacillus subtilis, Pseudomonas aeruginosa forms a complex architecture on defined medium. These complex structures require the proper formation and assembly of the extra-cellular matrix. […] For these experiments, the organism/strain was P.a. Harvard PA14, the culture medium was M63 and the cell inoculation was at 1.5×10^9 cfu.

Bacillus subtilis [4] = experiment: Disruption of existing 3 day-old pellicles; assay type: cell-based; conditions: 3 μM added to 3 day-old cultures, further 8 hours
S. aureus (strain SCO1) = experiment: Biofilm formation on polystyrene, crystal violet staining; assay type: cell-based, Staphylococcus aureus
Experimental: Crystal violet staining Crystal violet staining was done as described previously (O'Toole et al., Mol. […] Wells were stained with 500 μl of 1.0% Crystal-violet dye, rinsed twice with 2 ml double-distilled water and thoroughly dried.
The effect of D-amino acids on biofilm formation by other bacteria was examined. The pathogenic bacterium Staphylococcus aureus forms biofilms on plastic surfaces (Otto, Curr. Top. Microbiol. Immunol. 322:207 (2008)), which can be detected by washing away unbound cells and staining the bound cells with crystal violet. […] Additionally added to the wells were no amino acids (untreated), D-tyrosine (50 μM) or the D-amino acid mixture ([…] each). Cells bound to the polystyrene were visualized by washing away unbound cells and then staining with crystal violet.
as §1, with “method. The data is shown below in Tables 1 and 2:” for “method.”
For experiments reported in Tables 3 and 4, the organism/strain was S.a. Harvard SCO1, the culture medium was TSB and the cell inoculation was at 2×10^9 cfu. Biofilm was visualized using the crystal violet method.

[5] = Staphylococcus aureus, 24 h, read-out: % Inhibition relative to control (0%, <50%, 50-90%, >90%)

`N[C@H](Cc1ccc(O)cc1)C(=O)O` [D-tyrosine] was tested, and the inhibition at 50 µM (Pseudomonas aeruginosa; Pseudomonas aeruginosa, 12 h, read-out: % Inhibition relative to control (0%, <50%, 50-90%, >90%)) was > 90%, the “number of cells attached to the bottom of the biofilm plate (FIG. 21)” value (Pseudomonas aeruginosa; concentration not given) was “dramatic decrease in the number of cells attached” and the “total accumulation of TasA-mCherry (FIG. 3B)” value (TasA-mCherry; grown to stationary phase with shaking) was “little or no effect”. For the same molecule, the “Cell decoration with TasA-mCherry, fluorescence microscopy of washed cells” value (TasA-mCherry; grown to stationary phase, washed and resuspended) was “only low levels of fluorescence”, the “yqxM and eps expression (FIG. 9A, 9B)” value [1] was “substantially the same as the untreated sample” and the “Prevention of biofilm formation (FIG. 10)” value ([2]; 10 μM, strain P014, polystyrene, 48 hours at 30° C., M63 medium) was “effective in preventing biofilm formation”. For the same molecule, the inhibition at 0.1 µM ([2]; Pseudomonas aeruginosa, PA14, Table 2, 100 nM, 48 h/30° C., polystyrene, M63, read-out: % Inhibition relative to control (0%, <50%, 50-90%, >90%)) was 0%, the inhibition at 10 µM ([2]; Pseudomonas aeruginosa, PA14, Table 2, 10 μM, 48 h/30° C., polystyrene, M63, read-out: % Inhibition relative to control (0%, <50%, 50-90%, >90%)) was > 90% and the inhibition at 100 µM ([2]; Pseudomonas aeruginosa, PA14, Table 2, 100 μM, 48 h/30° C., polystyrene, M63, read-out: % Inhibition relative to control (0%, <50%, 50-90%, >90%)) was > 90%. For the same molecule, the inhibition at 500 µM ([2]; Pseudomonas aeruginosa, PA14, Table 2, 500 μM, 48 h/30° C., polystyrene, M63, read-out: % Inhibition relative to control (0%, <50%, 50-90%, >90%)) was > 90%, the “Cell growth (FIG. 8)” value (Bacillus subtilis [3]) was “substantially the same as the untreated sample” and the “Biofilm formation on defined medium (FIG. 20)” value (P.a. Harvard PA14) was “inhibited biofilm formation”. The “Breakdown of existing pellicles (FIG. 2C)” value (Bacillus subtilis [4]) was “conspicuous breakdown of pellicles”, the “Prevention of biofilm formation (FIG. 2E)” value (S. aureus (strain SCO1); 50 μM, 12-well polystyrene, 24 hours at 37° C., TSB with glucose (0.5%) and NaCl (3%)) was “highly effective in preventing biofilm formation” and the inhibition at 0.1 µM (S. aureus (strain SCO1); [5]) was 0%. The inhibition at 10 µM (S. aureus (strain SCO1); [5]) was 0%, the inhibition at 100 µM (S. aureus (strain SCO1); [5]) was > 90% and the inhibition at 500 µM (S. aureus (strain SCO1); [5]) was > 90%.
